Where “and” joins values, the source holds several entries; their conditions need not be identical. Equal entries are not always repeated. Entries after “also recorded” stand apart in the source; their conditions may differ.

The target in one assay is T1, full-length PARP-1 (Homo sapiens, UniProt P09874).
T1 construct: Full-length PARP-1 WT (residues 1–1014) was cloned in pET28 vector; made in house; host or cells: E. coli
Description: Colorimetric assay of full-length PARP-1 DNA-dependent activity. In kind it is biochemical. The settings on record: for IC50: 20 nM PARP-1, 40 nM DNA (18-bp duplex), 50 μM NAD+ (99:1 NAD+:bio-NAD+). The method, then: The colorimetric assay was performed as described, [28] using 20 nM of protein and 40 nM DNA (18-bp duplex). A mixture of NAD^+ and biotinylated NAD^+ (bio-NAD^+) was used at a 99:1 ratio and a final concentration of 50 µM. Reactions were allowed to proceed for 5 min before quenching. Three independent experiments were performed.

The next assay addresses T2, PARP-1 CAT domain WT (Homo sapiens, UniProt P09874).
T2 construct: The PARP-1 CAT WT (residues 661–1014) was cloned in pET28 vector; made in house; host or cells: E. coli
The experiment in a line: Differential scanning fluorimetry (DSF), PARP-1 CAT WT. It counts as binding. The conditions noted are these: for change of apparent TM of PARP-1 CAT WT (evidence of binding): 5 μM protein, various amounts of compound; for TM: in °C (unit assumed). The method, then:
(§1) DSF experiments were performed as described, [13] using 5 µM protein, 2.5 µM DNA when indicated and various concentrations of compound (BAD, carba-NAD^+, benzamide, and ADP-ribose) as indicated in Fig. 1 and Fig. 3. Experiments were performed on a Roche LightCycler 480 RT-PCR. Reactions including DNA were performed with a 26- or 28-base pair (bp) unphosphorylated oligonucleotide for PARP-1, a 28-bp 5´-phosphorylated (5´P) oligonucleotide for PARP-2, and a 47-bp oligonucleotide including a central 5´P nick for PARP-3^13 in the following buffer: 25 mM Hepes pH 8.0, 150 mM NaCl, 1 mM EDTA, and 0.1 mM TCEP. Reactions with PARP-3 were conducted at lower ionic strength to allow binding to DNA as described (25 mM Hepes pH 8.0, 50 mM NaCl, 1 mM EDTA and 0.1 mM TCEP)[13]. ΔTM values were calculated by subtracting the TM determined for the protein in the absence of compound from the TM determined in the presence of compound. Experiments were performed in triplicate and a Boltzmann sigmoid was fit to the data to determine the TM values (KaleidaGraph).
On the technique in general: Differential scanning fluorimetry follows unfolding on heating by fluorescence.

Assay [1] deals with T3, PARP-1 CAT ΔHD (Homo sapiens, UniProt P09874).
T3 construct: a pET28 construct coding for PARP-1 residues 661-1011; made in house; host or cells: E. coli
The experiment in a line: DSF, PARP-1 CAT ΔHD. It counts as binding. The settings on record: for TM: CAT ΔHD 5 μM, in °C (unit assumed). The procedure: as §1

In assay [2] the target is T3, PARP-1 CAT ΔHD. The experiment in a line: ITC, PARP-1 CAT ΔHD. In kind it is binding. The conditions noted are these: for n (stoichiometry): CAT ΔHD; for Kd: CAT ΔHD 50 μM, compound 525 μM titrated, 25°C. The procedure: (§2) ITC experiments were performed using a MicroCal iTC200 calorimeter (GE Healthcare). BAD or benzamide at 525 μM was titrated into PARP-1 protein (50 μM for CAT WT and CAT ΔHD, 40 μM for full-length PARP-1 WT and mutants) or PARP-1 protein with DNA (20–40 μM) at 25°C. Prior to the experiment, proteins and DNA were dialyzed in 25 mM Hepes pH 8.0, 150 mM NaCl, 1 mM EDTA, and 0.1 mM TCEP. BAD and benzamide were diluted in the dialysis buffer. PARP-1/DNA complexes were assembled and incubated at RT for 30 min prior to performing the experiment. Experiments were typically designed as follows: a first injection of 0.2 μL was followed by 16 injections of 2.5 μL with a spacing of 100 s between injections. Excess heat upon each injection was integrated using an automatically adjusted base line and derived values corrected by heat of dilution. Data analysis and curve fitting were conducted using Origin 7 software. The ITC experiment for each sample was performed either two (PARP-1 WT with benzamide, PARP-1 E763/D766/D770A with benzamide, PARP-1 D766/D770A with BAD) or three times (the remaining eight samples). Table 2 lists the average KD value and stoichiometry (n) for the replicates, and the reported errors are the calculated standard deviations (representing the range of values for experiments repeated two times). We anticipate that the sub-stoichiometric n values for CAT constructs results from either the active fraction being < 100%, or the protein concentration determination being not entirely accurate. The analysis of full-length PARP-1 yielded n values around the expected value of 1.
(In general: In ITC the heat of successive injections is recorded.)

Another assay concerns the target T4, full-length PARP-1 WT (Homo sapiens, UniProt P09874).
T4 construct: Full-length PARP-1 WT (residues 1–1014) was cloned in pET28 vector; made in house; host or cells: E. coli
The experiment in a line: ITC, full-length PARP-1 WT with or without DNA. The conditions noted are these: for KD / Kd: compound 525 μM titrated, 25°C. In kind it is binding. The method, then: as §2

Assay [3] has as its target T5, PARP-1 WT (Homo sapiens, UniProt P09874).
T5 construct: Full-length PARP-1 WT (residues 1–1014) was cloned in pET28 vector; made in house; host or cells: E. coli
The experiment in a line: Fluorescence polarization DNA competition assay, PARP-1 WT. The conditions noted are these: 40 nM PARP-1 WT, 20 nM labeled DNA, compound 500 μM, competitor 100 nM. In kind it is binding. The method, then: (§3) For the DNA competition assay, 40 nM PARP-1 WT, or PARP-1 ΔHD, was incubated with 20 nM of dumbbell DNA with a central nick carrying an internal fluorescent FAM group (5′-GCT GAG C/FAMT/T CTGGTGAAGCTCAGCTCGCGGCAGCTGGTGCTGCCGCGA-3′) for 30 min at RT in 12 mM Hepes pH 8.0, 60 mM KCl, 8 mM MgCl2, 4% glycerol, 5.7 mM beta-mercaptoethanol, 0.05 mg per ml bovine serm albumin with or without BAD or benzamide (500 μM). A competitor unlabeled DNA of the same sequence was added at 100 nM and FP was measured over time on a VictorV plate reader (Perkin Elmer). For the DNA affinity measurement assay, increasing concentrations of PARP-1 WT were incubated for 30 min at RT with 5 nM of dumbbell DNA probe carrying a nick (described above) in the absence or presence of BAD or benzamide (100 μM) in the following buffer: 12 mM Hepes pH 8.0, 250 mM NaCl, 4% glycerol, 5.7 mM beta-mercaptoethanol, 0.05 mg per ml bovine serum albumin.
Background: Polarisation of emitted light reports the rotation of a fluorescent probe.

Assay [4] has as its target T5, PARP-1 WT. The experiment in a line: Fluorescence polarization DNA affinity measurement assay. The conditions noted are these: presence versus absence of compound. It counts as binding. The procedure: as §3
[5] abbreviates: Figure 1e, CAT WT 5 μM, compound 25 µM, TM without compound 51.58.
Setting [6] is: Figure 1e, CAT WT 5 μM, compound 150 µM, TM without compound 51.58.
The mark [7] stands for this setting: Figure 1e, CAT WT 5 μM, compound 750 µM, TM without compound 51.58.
Where [8] appears, read: Figure 1e, CAT WT 5 μM, compound 1500 µM, TM without compound 51.58.
[9] abbreviates: Figure 1e, compound 25 µM, TM without compound 41.26.
Where [10] appears, read: Figure 1e, compound 150 µM, TM without compound 41.26.
Setting [11] is: Figure 1e, compound 750 µM, TM without compound 41.26.
Where [12] appears, read: Figure 1e, compound 1500 µM, TM without compound 41.26.

T3 sequence (P09874 with tags, fused parts or gaps): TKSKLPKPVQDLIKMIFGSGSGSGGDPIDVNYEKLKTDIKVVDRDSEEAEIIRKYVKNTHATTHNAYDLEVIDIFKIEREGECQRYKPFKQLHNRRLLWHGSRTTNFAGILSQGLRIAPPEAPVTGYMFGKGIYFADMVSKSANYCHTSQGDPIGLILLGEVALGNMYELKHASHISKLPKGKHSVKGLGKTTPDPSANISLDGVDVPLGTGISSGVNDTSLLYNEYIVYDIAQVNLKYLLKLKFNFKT
T1 sequence (P09874 whole entry, the tested form may be a part): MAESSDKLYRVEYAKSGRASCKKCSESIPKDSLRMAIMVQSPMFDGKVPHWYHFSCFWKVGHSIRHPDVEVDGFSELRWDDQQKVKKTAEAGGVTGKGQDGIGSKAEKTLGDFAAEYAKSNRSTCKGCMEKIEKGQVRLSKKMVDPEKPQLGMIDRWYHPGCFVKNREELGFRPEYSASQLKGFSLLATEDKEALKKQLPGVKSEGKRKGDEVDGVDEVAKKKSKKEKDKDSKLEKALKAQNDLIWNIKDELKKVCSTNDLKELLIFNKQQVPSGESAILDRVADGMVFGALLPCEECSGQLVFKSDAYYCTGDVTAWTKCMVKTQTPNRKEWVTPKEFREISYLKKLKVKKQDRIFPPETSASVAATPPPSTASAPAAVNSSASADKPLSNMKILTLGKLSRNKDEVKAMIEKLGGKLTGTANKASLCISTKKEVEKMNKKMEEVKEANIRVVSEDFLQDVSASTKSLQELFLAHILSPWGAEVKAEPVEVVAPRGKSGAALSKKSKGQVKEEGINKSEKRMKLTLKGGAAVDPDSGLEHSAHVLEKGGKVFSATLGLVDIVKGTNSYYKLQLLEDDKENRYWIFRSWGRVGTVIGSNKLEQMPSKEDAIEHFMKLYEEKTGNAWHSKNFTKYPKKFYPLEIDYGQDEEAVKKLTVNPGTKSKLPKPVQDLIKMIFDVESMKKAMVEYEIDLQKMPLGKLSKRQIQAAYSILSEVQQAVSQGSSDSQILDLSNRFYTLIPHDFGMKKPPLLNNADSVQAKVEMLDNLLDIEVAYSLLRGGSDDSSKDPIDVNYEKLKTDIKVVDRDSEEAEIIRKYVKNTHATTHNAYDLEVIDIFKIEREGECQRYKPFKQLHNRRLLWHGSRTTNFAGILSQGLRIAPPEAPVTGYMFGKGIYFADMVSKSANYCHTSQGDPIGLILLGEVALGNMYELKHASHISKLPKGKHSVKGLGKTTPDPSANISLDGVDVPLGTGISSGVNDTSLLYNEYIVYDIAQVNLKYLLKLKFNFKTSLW
T4 sequence (P09874 whole entry, the tested form may be a part): as above
T5 sequence (P09874 whole entry, the tested form may be a part): as above
T2 sequence (P09874 661-1014): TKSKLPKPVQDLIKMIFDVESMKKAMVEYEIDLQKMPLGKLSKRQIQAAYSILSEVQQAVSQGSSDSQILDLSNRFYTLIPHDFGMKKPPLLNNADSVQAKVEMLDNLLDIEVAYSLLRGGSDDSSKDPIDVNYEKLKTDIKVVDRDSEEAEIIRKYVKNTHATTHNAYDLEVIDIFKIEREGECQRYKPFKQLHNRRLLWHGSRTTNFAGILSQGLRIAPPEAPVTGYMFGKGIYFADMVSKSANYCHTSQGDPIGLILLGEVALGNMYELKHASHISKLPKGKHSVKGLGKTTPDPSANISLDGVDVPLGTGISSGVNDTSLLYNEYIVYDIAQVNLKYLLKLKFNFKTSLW

Take `NC(=O)c1cccc(C2OC(COP(=O)(O)OP(=O)(O)OCC3OC(n4cnc5c(N)ncnc54)C(O)C3O)C(O)C2O)c1` (stereo not drawn) [BAD, benzamide adenine dinucleotide]: at full-length PARP-1, the IC50 – broadly, the concentration that inhibits the measured activity by half – was 8.6 µM and 8.63 µM. Moreover, the “change of apparent TM of PARP-1 CAT WT (evidence of binding)” value on PARP-1 CAT domain WT was “neither BAD nor carba-NAD^+ changed the apparent TM; also recorded: did not show evidence of binding”. The “increase in TM of PARP-1 CAT containing the HD” value on PARP-1 CAT domain WT (4 mM BAD) was “no increase in TM”. The TM on PARP-1 CAT domain WT (setting [5]) is on record as 51.48; on PARP-1 CAT domain WT (setting [6]) it was 51.45; at PARP-1 CAT domain WT (setting [7]), 51.64; on PARP-1 CAT domain WT (setting [8]), 51.60; on PARP-1 CAT domain WT (Figure 1d, CAT WT 5 μM, compound 50 µM, TM without compound 51.23) it was 51.06; at PARP-1 CAT domain WT (Figure 1d, CAT WT 5 μM, compound 250 µM, TM without compound 51.23), 51.09. The TM was 51.30 on PARP-1 CAT domain WT (Figure 1d, CAT WT 5 μM, compound 1250 µM, TM without compound 51.23); 51.21 on PARP-1 CAT domain WT (Figure 3d, PARP-1 CAT 5 μM, BAD 4 mM, TM without BAD 51.04); 45.52 on PARP-1 CAT ΔHD [1] (setting [9]); 48.60 at PARP-1 CAT ΔHD [1] (setting [10]); 49.27 at PARP-1 CAT ΔHD [1] (setting [11]); 51.95 on PARP-1 CAT ΔHD [1] (setting [12]). Moreover, the TM on PARP-1 CAT ΔHD [1] (Figure 1d, compound 50 µM, TM without compound 41.76) was determined as 47.02; at PARP-1 CAT ΔHD [1] (Figure 1d, compound 250 µM, TM without compound 41.76) it was 49.58; at PARP-1 CAT ΔHD [1] (Figure 1d, compound 1250 µM, TM without compound 41.76) it was 51.91. In addition, the “TM increase (ΔTM) of CAT ΔHD” value at PARP-1 CAT ΔHD [1] (at the highest concentration, 5 μM protein) was 10 °C. Besides, the “n (stoichiometry)” value was 0.63 + /− 0.09 on PARP-1 CAT ΔHD [2] and 1.11 + /− 0.29 at full-length PARP-1 WT (FL WT with DNA). The Kd – broadly, the concentration at which binding is half-saturated – on PARP-1 CAT ΔHD [2] is 5.87 µM; at full-length PARP-1 WT (FL WT with DNA (40 μM, 8 bp-duplex)) it was 1.8 µM and 1.81 µM. On full-length PARP-1 WT (FL WT 40 μM, without DNA), the KD entry was “no evidence of BAD binding”. At PARP-1 WT [3], the “exchange of PARP-1 from labeled to unlabeled competitor DNA” value is recorded as “greatly prevented the exchange”. In addition, the “increase in PARP-1 affinity for a DNA single-strand break” value at PARP-1 WT [4] was 10 fold.

Take `NC(=O)c1ccccc1` [benzamide]: at full-length PARP-1, the IC50 was 4.6 µM and 4.62 µM. Besides, the “inhibition of DNA damage-dependent activity of full-length PARP-1” value against full-length PARP-1 (20 nM PARP-1, 40 nM DNA, 50 μM NAD+) is recorded as “inhibits to a similar extent as the entire BAD molecule”. Further, on PARP-1 CAT domain WT, the “change of apparent TM of PARP-1 CAT WT (evidence of binding)” value is “increased the TM”. The TM at PARP-1 CAT domain WT (setting [5]) is on record as 52.53; at PARP-1 CAT domain WT (setting [6]), 54.28; on PARP-1 CAT domain WT (setting [7]), 54.86; on PARP-1 CAT domain WT (setting [8]), 57.12; at PARP-1 CAT ΔHD [1] (setting [9]), 43.73; at PARP-1 CAT ΔHD [1] (setting [10]), 46.20. Further, the TM at PARP-1 CAT ΔHD [1] (setting [11]) is 46.99; at PARP-1 CAT ΔHD [1] (setting [12]), 49.98. For the same compound, on PARP-1 CAT ΔHD [1] (5 μM protein, various amounts of compound), the “change of TM of CAT ΔHD (evidence of binding)” value was “increased the TM”. The “n (stoichiometry)” value at PARP-1 CAT ΔHD [2] is listed as 0.39 + /− 0.01; on full-length PARP-1 WT (FL WT, without DNA) it was 0.88 + /− 0.01. Besides, the Kd is 3.21 µM at PARP-1 CAT ΔHD [2] and 2.32 µM at full-length PARP-1 WT (FL WT 40 μM, without DNA). For the same compound, the KD entry on full-length PARP-1 WT (FL WT 40 μM, without DNA) is “bound to benzamide in the absence of DNA”. At PARP-1 WT [3], the “exchange of PARP-1 from labeled to unlabeled competitor DNA” value is on record as “did not affect PARP-1 release”. At PARP-1 WT [4], the “increase in PARP-1 affinity for a DNA single-strand break” value is “no effect”.

These data come from article PMC5829251, “NAD^+ analog reveals PARP-1 substrate-blocking mechanism and allosteric communication from catalytic center to DNA-binding domains” (Nature Communications, 2018).
